Test results taken from PubChem BioAssay (NCI).
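These data come from cells grown in 96-well plates and exposed to compound for 48 hours at five concentrations. TGI: total growth inhibition.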

Key:
Test in all cases: NCI anticancer screen, dose series, 48 h
786-0 renal = tested on: 786-0 renal
A549 NSCLC = tested on: A549 NSCLC
ACHN renal = tested on: ACHN renal
CCRF-CEM leukemia = tested on: CCRF-CEM leukemia
COLO 205 colon = tested on: COLO 205 colon
DMS 114 small cell lung = tested on: DMS 114 small cell lung
DMS 273 small cell lung = tested on: DMS 273 small cell lung
EKVX NSCLC = tested on: EKVX NSCLC
HCC-2998 colon = tested on: HCC-2998 colon
HCT-116 colon = tested on: HCT-116 colon
HCT-15 colon = tested on: HCT-15 colon
HL-60(TB) leukemia = tested on: HL-60(TB) leukemia
HOP-62 NSCLC = tested on: HOP-62 NSCLC
HOP-92 NSCLC = tested on: HOP-92 NSCLC
HT29 colon = tested on: HT29 colon
IGROV1 ovarian = tested on: IGROV1 ovarian
K-562 leukemia = tested on: K-562 leukemia
KM12 colon = tested on: KM12 colon
KM20L2 colon = tested on: KM20L2 colon
LOX IMVI melanoma = tested on: LOX IMVI melanoma
LXFL 529 NSCLC = tested on: LXFL 529 NSCLC
M14 melanoma = tested on: M14 melanoma
M19-MEL melanoma = tested on: M19-MEL melanoma
MALME-3M melanoma = tested on: MALME-3M melanoma
MOLT-4 leukemia = tested on: MOLT-4 leukemia
NCI-H226 lung = tested on: NCI-H226 lung
NCI-H460 lung = tested on: NCI-H460 lung
NCI-H522 lung = tested on: NCI-H522 lung
OVCAR-3 ovarian = tested on: OVCAR-3 ovarian
OVCAR-4 ovarian = tested on: OVCAR-4 ovarian
OVCAR-5 ovarian = tested on: OVCAR-5 ovarian
SF-268 CNS = tested on: SF-268 CNS
SF-539 CNS = tested on: SF-539 CNS
SK-MEL-2 melanoma = tested on: SK-MEL-2 melanoma
SK-MEL-5 melanoma = tested on: SK-MEL-5 melanoma
SK-OV-3 ovarian = tested on: SK-OV-3 ovarian
SN12C renal = tested on: SN12C renal
SNB-19 CNS = tested on: SNB-19 CNS
SNB-75 CNS = tested on: SNB-75 CNS
UACC-257 melanoma = tested on: UACC-257 melanoma
UACC-62 melanoma = tested on: UACC-62 melanoma
UO-31 renal = tested on: UO-31 renal
XF 498 CNS = tested on: XF 498 CNS
A498 renal = tested on: A498 renal
CAKI-1 renal = tested on: CAKI-1 renal
DLD-1 colon = tested on: DLD-1 colon
NCI-H23 lung = tested on: NCI-H23 lung
OVCAR-8 ovarian = tested on: OVCAR-8 ovarian
RPMI-8226 leukemia = tested on: RPMI-8226 leukemia
RXF 393 renal = tested on: RXF 393 renal
SF-295 CNS = tested on: SF-295 CNS
SK-MEL-28 melanoma = tested on: SK-MEL-28 melanoma
SNB-78 CNS = tested on: SNB-78 CNS
SW-620 colon = tested on: SW-620 colon
TK-10 renal = tested on: TK-10 renal
U251 CNS = tested on: U251 CNS
HOP-18 NSCLC = tested on: HOP-18 NSCLC

## CC[n+]1c(/C=C/c2cc(C(=O)OC)n3c2sc2ccccc23)sc2ccccc21
786-0 renal
  TGI: 38.6 µM
A549 NSCLC
  TGI: 38.3 µM
ACHN renal
  TGI: 36.2 µM
CCRF-CEM leukemia
  TGI: 32.6 µM
COLO 205 colon
  TGI: 65.8 µM
DMS 114 small cell lung
  TGI: 52.9 µM
DMS 273 small cell lung
  TGI: 38.2 µM
EKVX NSCLC
  TGI: 38.9 µM
HCC-2998 colon
  TGI: 27.8 µM
HCT-116 colon
  TGI: 37.1 µM
HCT-15 colon
  TGI: 34.9 µM
HL-60(TB) leukemia
  TGI: 98.4 µM
HOP-62 NSCLC
  TGI: 34.8 µM
HOP-92 NSCLC
  TGI: 31.6 µM
HT29 colon
  TGI: 33 µM
IGROV1 ovarian
  TGI: 32.9 µM
K-562 leukemia
  TGI: 31.2 µM
KM12 colon
  TGI: 29.1 µM
KM20L2 colon
  TGI: 35.1 µM
LOX IMVI melanoma
  TGI: 40.5 µM
LXFL 529 NSCLC
  TGI: 32.9 µM
M14 melanoma
  TGI: 34.9 µM
M19-MEL melanoma
  TGI: 35.5 µM
MALME-3M melanoma
  TGI: 33 µM
MOLT-4 leukemia
  TGI: 33.9 µM
NCI-H226 lung
  TGI: 45.1 µM
NCI-H460 lung
  TGI: 34.3 µM
NCI-H522 lung
  TGI: 30.7 µM
OVCAR-3 ovarian
  TGI: 42.4 µM
OVCAR-4 ovarian
  TGI: 34.2 µM
OVCAR-5 ovarian
  TGI: 37.3 µM
SF-268 CNS
  TGI: 42.2 µM
SF-539 CNS
  TGI: 33.8 µM
SK-MEL-2 melanoma
  TGI: 39 µM
SK-MEL-5 melanoma
  TGI: 28.9 µM
SK-OV-3 ovarian
  TGI: 34 µM
SN12C renal
  TGI: 49.3 µM
SNB-19 CNS
  TGI: 44 µM
SNB-75 CNS
  TGI: 32.5 µM
UACC-257 melanoma
  TGI: 33.1 µM
UACC-62 melanoma
  TGI: 30.9 µM
UO-31 renal
  TGI: 35.1 µM
XF 498 CNS
  TGI: 29.3 µM

## CN(C)c1ccc(-c2nc(N)nc3c2CCCC3)cc1
786-0 renal
  TGI: > 100 µM
A498 renal
  TGI: > 100 µM
A549 NSCLC
  TGI: > 100 µM
ACHN renal
  TGI: 76.9 µM
CAKI-1 renal
  TGI: > 100 µM
CCRF-CEM leukemia
  TGI: > 100 µM
COLO 205 colon
  TGI: > 100 µM
DLD-1 colon
  TGI: > 100 µM
DMS 114 small cell lung
  TGI: > 100 µM
DMS 273 small cell lung
  TGI: > 100 µM
EKVX NSCLC
  TGI: 98.6 µM
HCC-2998 colon
  TGI: > 100 µM
HCT-116 colon
  TGI: > 100 µM
HL-60(TB) leukemia
  TGI: > 100 µM
HOP-62 NSCLC
  TGI: > 100 µM
IGROV1 ovarian
  TGI: > 100 µM
K-562 leukemia
  TGI: > 100 µM
KM12 colon
  TGI: > 100 µM
KM20L2 colon
  TGI: > 100 µM
LOX IMVI melanoma
  TGI: > 100 µM
LXFL 529 NSCLC
  TGI: > 100 µM
M14 melanoma
  TGI: > 100 µM
M19-MEL melanoma
  TGI: > 100 µM
MALME-3M melanoma
  TGI: > 100 µM
MOLT-4 leukemia
  TGI: > 100 µM
NCI-H226 lung
  TGI: > 100 µM
NCI-H23 lung
  TGI: > 100 µM
NCI-H460 lung
  TGI: > 100 µM
NCI-H522 lung
  TGI: 98.1 µM
OVCAR-3 ovarian
  TGI: 96.7 µM
OVCAR-5 ovarian
  TGI: > 100 µM
OVCAR-8 ovarian
  TGI: > 100 µM
RPMI-8226 leukemia
  TGI: > 100 µM
RXF 393 renal
  TGI: > 100 µM
SF-268 CNS
  TGI: > 100 µM
SF-295 CNS
  TGI: > 100 µM
SF-539 CNS
  TGI: > 100 µM
SK-MEL-2 melanoma
  TGI: > 100 µM
SK-MEL-28 melanoma
  TGI: > 100 µM
SK-MEL-5 melanoma
  TGI: > 100 µM
SK-OV-3 ovarian
  TGI: > 100 µM
SN12C renal
  TGI: > 100 µM
SNB-19 CNS
  TGI: > 100 µM
SNB-75 CNS
  TGI: > 100 µM
SNB-78 CNS
  TGI: > 100 µM
SW-620 colon
  TGI: > 100 µM
TK-10 renal
  TGI: > 100 µM
U251 CNS
  TGI: > 100 µM
UACC-62 melanoma
  TGI: > 100 µM
UO-31 renal
  TGI: > 100 µM
XF 498 CNS
  TGI: 60.5 µM

## O=C(O)C(Cc1ccc(O)cc1)N=Cc1nc(-c2ccccc2)oc1O (stereo not given)
786-0 renal
  TGI: > 100 µM
A498 renal
  TGI: > 100 µM
A549 NSCLC
  TGI: > 100 µM
ACHN renal
  TGI: > 100 µM
CAKI-1 renal
  TGI: > 100 µM
CCRF-CEM leukemia
  TGI: > 100 µM
COLO 205 colon
  TGI: > 100 µM
DLD-1 colon
  TGI: > 100 µM
DMS 114 small cell lung
  TGI: > 100 µM
DMS 273 small cell lung
  TGI: > 100 µM
EKVX NSCLC
  TGI: > 100 µM
HCC-2998 colon
  TGI: > 100 µM
HCT-116 colon
  TGI: > 100 µM
HCT-15 colon
  TGI: > 100 µM
HL-60(TB) leukemia
  TGI: > 100 µM
HOP-18 NSCLC
  TGI: > 100 µM
HOP-62 NSCLC
  TGI: > 100 µM
HOP-92 NSCLC
  TGI: > 100 µM
HT29 colon
  TGI: > 100 µM
K-562 leukemia
  TGI: > 100 µM
KM12 colon
  TGI: > 100 µM
KM20L2 colon
  TGI: > 100 µM
LOX IMVI melanoma
  TGI: > 100 µM
LXFL 529 NSCLC
  TGI: > 100 µM
M14 melanoma
  TGI: > 100 µM
MALME-3M melanoma
  TGI: > 100 µM
NCI-H226 lung
  TGI: > 100 µM
NCI-H23 lung
  TGI: > 100 µM
NCI-H460 lung
  TGI: > 100 µM
NCI-H522 lung
  TGI: > 100 µM
OVCAR-3 ovarian
  TGI: > 100 µM
OVCAR-4 ovarian
  TGI: > 100 µM
OVCAR-5 ovarian
  TGI: > 100 µM
OVCAR-8 ovarian
  TGI: > 100 µM
RPMI-8226 leukemia
  TGI: > 100 µM
RXF 393 renal
  TGI: > 100 µM
SF-268 CNS
  TGI: > 100 µM
SF-295 CNS
  TGI: > 100 µM
SF-539 CNS
  TGI: > 100 µM
SK-MEL-2 melanoma
  TGI: > 100 µM
SK-MEL-28 melanoma
  TGI: > 100 µM
SK-MEL-5 melanoma
  TGI: > 100 µM
SK-OV-3 ovarian
  TGI: > 100 µM
SNB-19 CNS
  TGI: > 100 µM
SNB-75 CNS
  TGI: > 100 µM
SNB-78 CNS
  TGI: > 100 µM
SW-620 colon
  TGI: > 100 µM
TK-10 renal
  TGI: > 100 µM
U251 CNS
  TGI: > 100 µM
UACC-257 melanoma
  TGI: > 100 µM
UO-31 renal
  TGI: > 100 µM
XF 498 CNS
  TGI: > 100 µM

## Nc1ccc(C(=O)NN2C(=O)C(Cl)C2c2ccc(O)cc2)cc1 (stereo not given)
786-0 renal
  TGI: 31.3 µM
A498 renal
  TGI: 56.5 µM
A549 NSCLC
  TGI: > 100 µM
ACHN renal
  TGI: > 100 µM
CAKI-1 renal
  TGI: 51.3 µM
CCRF-CEM leukemia
  TGI: 33.8 µM
COLO 205 colon
  TGI: 33.4 µM
DLD-1 colon
  TGI: 33.4 µM
DMS 114 small cell lung
  TGI: 25.7 µM
DMS 273 small cell lung
  TGI: 35.1 µM
EKVX NSCLC
  TGI: 36.1 µM
HCT-116 colon
  TGI: 44 µM
HCT-15 colon
  TGI: 50.1 µM
HL-60(TB) leukemia
  TGI: 33.7 µM
HOP-62 NSCLC
  TGI: 38.4 µM
HOP-92 NSCLC
  TGI: 41.8 µM
HT29 colon
  TGI: 45.1 µM
IGROV1 ovarian
  TGI: 32.9 µM
K-562 leukemia
  TGI: 49.5 µM
KM12 colon
  TGI: 47.2 µM
KM20L2 colon
  TGI: 41.9 µM
LOX IMVI melanoma
  TGI: 22.7 µM
LXFL 529 NSCLC
  TGI: 31.7 µM
M14 melanoma
  TGI: 31.4 µM
M19-MEL melanoma
  TGI: 38.8 µM
MALME-3M melanoma
  TGI: 32.9 µM
MOLT-4 leukemia
  TGI: 37.8 µM
NCI-H226 lung
  TGI: 57.3 µM
NCI-H23 lung
  TGI: 35.2 µM
NCI-H460 lung
  TGI: 54.8 µM
NCI-H522 lung
  TGI: 24.4 µM
OVCAR-3 ovarian
  TGI: 29.2 µM
OVCAR-4 ovarian
  TGI: 41.4 µM
OVCAR-5 ovarian
  TGI: 46.6 µM
OVCAR-8 ovarian
  TGI: 68.8 µM
RPMI-8226 leukemia
  TGI: > 100 µM
SF-268 CNS
  TGI: 27 µM
SF-295 CNS
  TGI: > 100 µM
SF-539 CNS
  TGI: 34.3 µM
SK-MEL-2 melanoma
  TGI: 31.4 µM
SK-MEL-28 melanoma
  TGI: 40.7 µM
SK-MEL-5 melanoma
  TGI: 31 µM
SK-OV-3 ovarian
  TGI: 46.1 µM
SN12C renal
  TGI: 36.6 µM
SNB-19 CNS
  TGI: 31.4 µM
SNB-75 CNS
  TGI: 70.4 µM
SNB-78 CNS
  TGI: 44.6 µM
SW-620 colon
  TGI: 44.7 µM
TK-10 renal
  TGI: > 100 µM
U251 CNS
  TGI: 29.6 µM
UACC-257 melanoma
  TGI: > 100 µM
UACC-62 melanoma
  TGI: 29.1 µM
UO-31 renal
  TGI: 57.9 µM
XF 498 CNS
  TGI: 27.8 µM
